From patent US10888519B2, “Immediate release pharmaceutical composition of iron chelating agents” (Jubilant Generics Limited, priority 2016, dated 2021)

Assays:
[1] = Bulk density, tapped density and flow properties (Hausner Ratio, Compressibility Index); assay type: physicochemical; conditions: for Hausner Ratio: tapped density / bulk density
Procedure: The composition of present invention were analyzed for bulk and tapped density and flow properties such as Hausner Ratio, Compressibility Index. Bulk Density and Tapped Density is determined using the standard method of Test 616 (Bulk Density and Tapped Density) of USP 32. The Hausner ratio may be calculated using formula ptap/pbulk where ptap represents tapped density of granulate mass and pbulk represents the loose bulk density of granulate mass. A Hausner ratio of <1.25 indicates a powder that is free flowing whereas >1.25 indicates poor flowability. Compressibility index is indirect measure of the flowability of the powder and it is determined according to US Pharmacopeia General Chapter <1174>. The smaller the compressibility index the better the flow properties. For example 5-15 indicates excellent, 12-16 good, 18-21 fair and >23 poor flow.

[2] = cited from earlier work
[3] = listed as Active Pharmaceutical Ingredient

O=C(O)c1ccc(-n2nc(-c3ccccc3O)nc2-c2ccccc2O)cc1 [Deferasirox, 4-[3,5-bis(2-hydroxyphenyl)-1H-1,2,4-triazol-1-yl]benzoic acid]
Tapped Density [1]: 0.300 g/mL
bulk density ([1]; API prior to granulation versus composition): about 0.185 g/mL
bulk density ([1]; Table 4): 0.185 g/mL
Compressibility Index (%) ([1]; listed as API): about 38.33%
Compressibility Index (%) [1, 3]: 38.33% (Very Poor)
Hausner Ratio ([1]; listed as API): about 1.62
Hausner Ratio [1, 3]: 1.62 (Very Poor)
solubility in water [2]: poorly soluble in water
